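Five compound concentrations were applied to cells in 96-well plates for 48 hours; endpoints were derived by simple linear interpolation of the resulting dose-response curve. GI50: concentration for 50% inhibition of growth.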 Active and inactive are the calls of the source. Rule as the data show it: active = GI50 up to about 1.1 µM and inactive = higher.
Tests used:
Test in all cases: inhibition of tumour cell growth, NCI panel, 48 h
[1] = system: 786-0
[2] = system: A498
[3] = system: A549
[4] = system: ACHN
[5] = system: CAKI-1
[6] = system: CCRF-CEM
[7] = system: COLO 205
[8] = system: DLD-1
[9] = system: DMS-114
[10] = system: EKVX
[11] = system: HCC 2998
[12] = system: HCT-116
[13] = system: HCT-15
[14] = system: HOP-18
[15] = system: HOP-62
[16] = system: HOP-92
[17] = system: HT-29
[18] = system: IGROV-1
[19] = system: K562
[20] = system: KM-20L2
[21] = system: KM12
[22] = system: LOX IMVI
[23] = system: LXFL 529
[24] = system: M14
[25] = system: M19-MEL
[26] = system: MOLT-4
[27] = system: Malme-3M
[28] = system: NCI-H226
[29] = system: NCI-H23
[30] = system: NCI-H460
[31] = system: NCI-H522
[32] = system: OVCAR-3
[33] = system: OVCAR-4
[34] = system: OVCAR-5
[35] = system: RPMI-8226
[36] = system: RXF 393
[37] = system: SF-268
[38] = system: SF-295
[39] = system: SF-539
[40] = system: SK-MEL-28
[41] = system: SK-MEL-5
[42] = system: SK-OV-3
[43] = system: SN12C
[44] = system: SNB-19
[45] = system: SNB-75
[46] = system: SNB-78
[47] = system: SR
[48] = system: SW-620
[49] = system: TK-10
[50] = system: U-251
[51] = system: UACC-257
[52] = system: UACC-62
[53] = system: UO-31
[54] = system: XF498

Nc1nnc(NC(=O)C2=NS(=O)(=O)c3cc(S(N)(=O)=O)c(Cl)cc3N2)[nH]1 was tested, and the GI50 [1] was > 100 µM (inactive), the GI50 [2] was > 100 µM (inactive) and the GI50 [3] was > 100 µM (inactive). The GI50 [4] was > 100 µM (inactive), the GI50 [5] was > 100 µM (inactive) and the GI50 [6] was > 100 µM (inactive). The GI50 [7] was > 100 µM (inactive), the GI50 [8] was > 100 µM (inactive) and the GI50 [9] was > 100 µM (inactive). For the same compound, the GI50 [10] was > 100 µM (inactive), the GI50 [11] was 0.752 µM (active) and the GI50 [12] was > 100 µM (inactive). The GI50 [13] was greater than 100 µM, the GI50 [14] was > 100 µM (inactive) and the GI50 [15] was > 100 µM (inactive). For the same compound, the GI50 [16] was > 100 µM (inactive), the GI50 [17] was > 100 µM (inactive) and the GI50 [18] was > 100 µM (inactive). For the same compound, the GI50 [19] was > 100 µM (inactive), the GI50 [20] was > 100 µM (inactive) and the GI50 [21] was > 100 µM (inactive). For the same compound, the GI50 [22] was > 100 µM (inactive), the GI50 [23] was > 100 µM (inactive) and the GI50 [24] was > 100 µM (inactive). The GI50 [25] was > 100 µM (inactive), the GI50 [26] was > 100 µM (inactive) and the GI50 [27] was > 100 µM (inactive). The GI50 [28] was > 100 µM (inactive), the GI50 [29] was > 100 µM (inactive) and the GI50 [30] was > 100 µM (inactive). The GI50 [31] was > 100 µM (inactive), the GI50 [32] was > 100 µM (inactive) and the GI50 [33] was > 100 µM (inactive). The GI50 [34] was > 100 µM (inactive), the GI50 [35] was > 100 µM (inactive) and the GI50 [36] was > 100 µM (inactive). For the same compound, the GI50 [37] was > 100 µM (inactive), the GI50 [38] was > 100 µM (inactive) and the GI50 [39] was > 100 µM (inactive). The GI50 [40] was > 100 µM (inactive), the GI50 [41] was > 100 µM (inactive) and the GI50 [42] was > 100 µM (inactive). For the same compound, the GI50 [43] was > 100 µM (inactive), the GI50 [44] was > 100 µM (inactive) and the GI50 [45] was > 100 µM (inactive). The GI50 [46] was > 100 µM (inactive), the GI50 [47] was > 100 µM (inactive) and the GI50 [48] was > 100 µM (inactive). The GI50 [49] was > 100 µM (inactive), the GI50 [50] was > 100 µM (inactive) and the GI50 [51] was > 100 µM (inactive). The GI50 [52] was > 100 µM (inactive), the GI50 [53] was > 100 µM (inactive) and the GI50 [54] was > 100 µM (inactive).
